Results on five compounds are retold here after patent US10285400B2, “Disinfectant composition containing quaternary ammonium compounds” (LONZA, INC., priority 2014, dated 2019).

Each structure is given as a SMILES string.

The test system of assay [1] is Pseudomonas aeruginosa (Pa). In words: OECD Quantitative Method for Evaluating Bacterial Activity of Microbiocides Used on Hard Non-Porous Surfaces. It counts as cell-based. Conditions: diluted with 375 ppm hard water, test concentration as in test composition. The text has this: (§1) Bardac 2250, containing of 50% didecyldimethylammonium chloride and 10% ethanol from Lonza, was used for the formulations.

The test system of assay [2] is Staphylococcus aureus (Sa). Described as above. As to conditions: diluted with 375 ppm hard water, test concentration as in test composition. Type of assay: cell-based.
Description: as §1

Turning to `OO` [Sample 2, hydrogen peroxide], the “# Log Reduc. 5 min contact Pa” value in assay [1] was 1.8 Log. The “# Log Reduc. 5 min contact Sa” value in assay [2] is 3.2 Log.
The corresponding values for `OO` [Sample 1, hydrogen peroxide] are 1.6 Log and 0.3 Log.
The corresponding values for `OO` [hydrogen peroxide] are “ineffective” and “ineffective”.
Regarding `CCCCCCCCCC[N+](C)(C)CCCCCCCCCC.[Cl-]` [Sample 3, didecyldimethylammonium chloride], the “# Log Reduc. 5 min contact Pa” value in assay [1] was determined as 3.3 Log.
As for `CCCCCCCCCC[N+](C)(C)CCCCCCCCCC.[Cl-]` [Bardac 22, didecyldimethylammonium chloride], the “# Log Reduc. 5 min contact Pa” value in assay [1] is “ineffective”. Also, the “# Log Reduc. 5 min contact Sa” value in assay [2] is “ineffective”.
